Drawing on PubChem BioAssay AID435029 (Sanford-Burnham Center for Chemical Genomics, 2010), this text covers IC50 for 10 compounds.

SMILES strings stand for the structures. Activity calls are given as the source filed them. The rule behind the calls is not given here.

The test relates to HIV Env-mediated cell-cell fusion, luminescence reporter. Briefly: HIV Env-driven cell-cell fusion inhibition, SAR follow-up, luminescence reporter (AID 435029).
For `COc1cc(C=NNc2ccc(Cl)c(C(=O)O)c2)ccc1OC(=O)c1ccccc1F`, the IC50 (in general, the concentration that inhibits the measured activity by half) is 68 µM.
As for `O=C(O)c1ccccc1N=Nc1c(O)[nH]c2ccc([N+](=O)[O-])cc12`, the IC50 was > 100 µM (inactive).
In the case of `O=C(N/N=C/c1c(O)n(C2CCCCC2)c(=S)[nH]c1=O)c1ccccc1O`, the IC50 is 11.5 µM.
`CCOC(=O)c1sc(N2C(=O)C(O)=C(C(=O)c3ccc(C)o3)C2c2cccc([N+](=O)[O-])c2)nc1C` (stereo not given): the half-maximal inhibitory concentration (IC50) was 5.1 µM.
Regarding `O=C(O)c1cc(NN=Cc2ccc(-c3ccccc3)cc2)ccc1Cl`, the concentration for half-maximal inhibition (IC50) was 10 µM.
Regarding `N#C/C(=C\c1ccc(O)c([N+](=O)[O-])c1)c1nc2ccccc2s1`, the IC50 was 4.65 µM.
The figure for `COc1cc(C=NNc2ccc(Cl)c(C(=O)O)c2)ccc1OC(=O)c1ccc(F)cc1` is 30 µM; for `COc1ccc(C(=O)Oc2ccc(C=NNc3ccc(Cl)c(C(=O)O)c3)cc2OC)cc1` it is 13 µM.
`CC(C)(C)c1cc(-c2csc(Nc3ccccc3)[n+]2Cc2ccc(C(=O)O)cc2)cc(C(C)(C)C)c1O`: the IC50 is 3.5 µM.
The figure for `Cc1c2c(=O)n(-c3nc4ccccc4s3)nc-2cc(O)n1Cc1ccccc1` is 6.58 µM.
